Source: patent publication US6410735B1, “1-(4-arylpiperazin-1-y1)-ω-[N-(α,ω-dicarboximido)]-alkanes useful as uro-selective α1-adrenoceptor blockers” (Ranbaxy Laboratories Limited, priority 1997, dated 2002)

Experiments:
[1] = target: T1, α1A-adrenoceptor (Rattus norvegicus, UniProt P43140); test: Receptor binding assay, [3H]prazosin, rat submaxillary membranes; conditions: rat submaxillary membranes, 0.5 nM [3H]prazosin; read-out: RBA (Ki nM) α1A
T1 construct: from tissue; host or cells: rat submaxillary gland membranes
T1 sequence (P43140 1-466): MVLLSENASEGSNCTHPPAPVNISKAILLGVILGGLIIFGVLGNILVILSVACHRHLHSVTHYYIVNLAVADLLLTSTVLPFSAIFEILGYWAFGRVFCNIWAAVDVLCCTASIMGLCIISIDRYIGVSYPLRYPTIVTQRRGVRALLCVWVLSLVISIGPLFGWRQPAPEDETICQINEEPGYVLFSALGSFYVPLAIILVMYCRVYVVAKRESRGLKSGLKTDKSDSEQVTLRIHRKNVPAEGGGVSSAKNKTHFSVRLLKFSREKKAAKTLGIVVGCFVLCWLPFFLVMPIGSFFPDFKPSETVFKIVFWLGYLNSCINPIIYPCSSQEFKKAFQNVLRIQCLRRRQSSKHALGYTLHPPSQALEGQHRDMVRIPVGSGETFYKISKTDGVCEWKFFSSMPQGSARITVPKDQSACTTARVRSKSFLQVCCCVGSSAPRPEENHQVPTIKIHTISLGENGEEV
Protocol: (§1) Receptor binding assays, (RBA's) were performed for native α1-adrenoceptors. Rat submaxillary and rat liver membrane preparations were used to assess the affinity for α1A and α1B subtypes, respectively. Aliquots of membrane protein ([…]) were incubated in a final volume of […] assay buffer (50 mM Tris, 0.5 mM EDTA at pH 7.4) with 0.5 nM [^3H] prazosin for 60 mins at 28 ° C. Reaction was stopped by rapid filtration on Millipore filters. Filters were dried and bound radioactivity counted. Non-specific binding was determined in the presence of 0.3 mM prazosin.

[2] = target: T2, H1 receptor (Cavia porcellus, UniProt P31389); test: Receptor selectivity, guinea pig trachea; assay type: cell-based; conditions: read-out: pKB H1-Histaminergic (converted)
T2 construct: guinea pig trachea was used to study H1 receptor antagonistic activity; from tissue; host or cells: guinea pig trachea
T2 sequence (P31389 whole entry): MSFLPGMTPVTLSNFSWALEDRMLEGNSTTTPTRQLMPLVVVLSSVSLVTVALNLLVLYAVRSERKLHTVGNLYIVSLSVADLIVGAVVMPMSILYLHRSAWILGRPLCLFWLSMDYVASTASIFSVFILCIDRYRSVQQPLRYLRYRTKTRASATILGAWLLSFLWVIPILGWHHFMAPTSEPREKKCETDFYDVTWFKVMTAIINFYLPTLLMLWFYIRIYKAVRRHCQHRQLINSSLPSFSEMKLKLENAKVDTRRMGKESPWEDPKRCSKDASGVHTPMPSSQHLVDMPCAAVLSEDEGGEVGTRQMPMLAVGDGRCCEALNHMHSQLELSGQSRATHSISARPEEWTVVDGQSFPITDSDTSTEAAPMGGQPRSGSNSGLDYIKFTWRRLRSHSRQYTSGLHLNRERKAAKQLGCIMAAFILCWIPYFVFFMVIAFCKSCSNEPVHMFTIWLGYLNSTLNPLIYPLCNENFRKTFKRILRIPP
Protocol: Selectivity of action of the present compounds was tested against a range of different receptors, e.g., β1- and α2-adrenergic, muscarinic cholinergic, serotoninergic (5-HT2A), histaminergic (H1), angiotensin II, endothelin (ETA and B,), as well as calcium and potassium channels. Rat aorta was used to study the effect of the compounds on 5-HT2A, ETA, calcium and potassium channels. Angiotensin II receptor antagonistic activity was studied in rabbit aorta. Muscarinic cholinergic receptor and ETB receptor antagonistic activity was studied in rat trachea, while guinea pig trachea was used to study H1 receptor antagonistic activity. Electrically stimulated rat vas deferens was used to investigate the effect of α2-adrenoceptors, while β1-adrenoceptor antagonistic activity was studied using electrically stimulated rat ventricular strips. Results of this selectivity study is shown in (Table 2).

[3] = target: T3, α1B-adrenoceptor (Rattus norvegicus, UniProt P15823); test: Receptor binding assay, [3H]prazosin, rat liver membranes; conditions: rat liver membranes, 0.5 nM [3H]prazosin; read-out: RBA (Ki nM) α1B
T3 construct: from tissue; host or cells: rat liver membranes
T3 sequence (P15823 1-515): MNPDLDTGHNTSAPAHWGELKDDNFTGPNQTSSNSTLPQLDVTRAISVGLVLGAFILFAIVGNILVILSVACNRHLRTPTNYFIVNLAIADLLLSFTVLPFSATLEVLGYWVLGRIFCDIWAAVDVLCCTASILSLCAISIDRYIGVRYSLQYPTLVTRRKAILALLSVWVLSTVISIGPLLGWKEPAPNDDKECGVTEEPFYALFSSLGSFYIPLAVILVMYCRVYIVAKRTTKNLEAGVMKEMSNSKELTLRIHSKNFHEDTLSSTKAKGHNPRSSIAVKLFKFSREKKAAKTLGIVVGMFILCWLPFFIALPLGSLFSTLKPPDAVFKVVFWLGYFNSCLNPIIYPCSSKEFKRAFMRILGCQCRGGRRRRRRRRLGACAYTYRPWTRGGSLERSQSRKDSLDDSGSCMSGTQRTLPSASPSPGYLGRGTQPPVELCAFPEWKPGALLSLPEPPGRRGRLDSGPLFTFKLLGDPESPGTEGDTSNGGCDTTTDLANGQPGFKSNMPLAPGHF
Protocol: as §1

[4] = target: T4, α1D-adrenoceptor (aorta) (Rattus norvegicus, UniProt P23944); test: In vitro functional assay, norepinephrine-induced contraction of isolated aorta; assay type: cell-based; conditions: rat aorta, norepinephrine; read-out: In Vitro Functional Assay (pKB) α1D (converted)
T4 construct: Aorta, prostate and spleen tissues were isolated from urethane anaesthetized (1.5 gm/kg) male wistar rats; from tissue; host or cells: isolated aorta of male Wistar rats
T4 sequence (P23944 1-561): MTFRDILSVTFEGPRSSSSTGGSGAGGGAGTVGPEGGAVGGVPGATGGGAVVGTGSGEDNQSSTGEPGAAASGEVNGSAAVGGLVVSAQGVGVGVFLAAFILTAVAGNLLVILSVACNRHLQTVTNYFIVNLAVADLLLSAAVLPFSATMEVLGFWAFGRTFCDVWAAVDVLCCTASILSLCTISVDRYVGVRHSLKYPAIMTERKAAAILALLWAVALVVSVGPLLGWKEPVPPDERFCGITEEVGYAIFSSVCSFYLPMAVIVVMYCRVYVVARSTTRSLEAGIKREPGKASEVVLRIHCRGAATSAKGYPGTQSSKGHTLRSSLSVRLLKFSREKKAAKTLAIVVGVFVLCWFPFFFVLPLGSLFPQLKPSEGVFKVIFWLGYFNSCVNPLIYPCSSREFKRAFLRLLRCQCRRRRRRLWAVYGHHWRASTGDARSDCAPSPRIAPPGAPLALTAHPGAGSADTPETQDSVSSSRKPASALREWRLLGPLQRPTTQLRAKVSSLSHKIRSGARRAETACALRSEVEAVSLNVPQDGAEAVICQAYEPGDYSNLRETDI
Text: In order to study selectivity of action of the present compounds towards different α-adrenoceptor subtypes, the ability of these compounds to antagonize α1-adrenoceptor agonist induced contractile response of aorta (α1D), prostate (α1A) and spleen (α1B) was studied. Aorta, prostate and spleen tissues were isolated from urethane anaesthetized (1.5 gm/kg) male wistar rats. Isolated tissues were mounted in organ bath containing Krebs Henseleit buffer of the following composition (mM): NaCl 118; KCl 4.7; CaCl2 2.5; MgSO4·H2O 1.2; NaHCO3 25; KH2PO4 1.2; glucose 11.5. Buffer was maintained at 37° C. and aerated with a mixture of 95% O2 and 5% CO2. A resting tension of 2 g (aorta) or 1 g (spleen and prostate) was applied to tissues. Contractile response was monitored using a force displacement transducer and recorded on chart recorders. Tissues were allowed to equilibrate for 2 hours. At the end of equilibration period, concentration response curves to norepinephrine (aorta) and phenylephrine (spleen and prostate) were obtained in the absence and presence of the tested compound (at concentrations of 0.1, 1 and 10 μM). Antagonist affinity was calculated and expressed as PKB values in Table 1.

Row | Structure (SMILES) | Ki [1] [nM] | Kb [2] [nM] | Ki [3] [nM] | Kb [4] [nM]
1 | COc1ccccc1N1CCN(CCCN2C(=O)CCC2=O)CC1 [Compound 2, 1-[4-(2-Methoxyphenyl)piperazin-1-yl]3-(2,5-dioxopyrrolidin-1-yl)propane] | 19 | 5010 | 244 | 50.1
2 | COc1ccccc1N1CCN(CCCCN2C(=O)CCC2=O)CC1 [Compound 9, 1-[4-(2-Methoxyphenyl)piperazin-1-yl]-4-(2,5-dioxopyrrolidin-1-yl)butane] | 1 | 3980 | 35 | 5.01
3 | COc1ccccc1N1CCN(CCCN2C(=O)CCCC2=O)CC1 [Compound 13, 1-[4-(2-Methoxyphenyl)piperazin-1-yl]-3-(2,6-dioxopiperidin-1-yl)propane] | 3 | 2000 | 168 | 12.6
